Measured values reported in article PMC7307906, “Macrocyclic Modalities Combining Peptide Epitopes and Natural Product Fragments” (Journal of the American Chemical Society, 2020).
Where a SMILES comes first, the peptide text is derived from it.

Key:
[1] = target: T1, human MC4R (Homo sapiens, UniProt P32245); assay: Melanocortin receptor radioligand binding (SPA, [125I]-NDP-α-MSH displacement), MC4R; settings: competitive binding, mean (± SEM) of at least three independent experiments, read-out: IC50 hMC4R binding
T1 construct: expressed in transfected cells

[2] = target: T2, human MC1R (Homo sapiens, UniProt Q01726); assay: cAMP assay (LANCE) in T-Rex-293 cells expressing MC1R; type: cell-based
T2 construct: expressed in transfected cells

[3] = target: T2, human MC1R; assay: Melanocortin receptor radioligand binding (SPA, [125I]-NDP-α-MSH displacement), MC1R; settings: competitive binding, mean (± SEM) of at least three independent experiments, read-out: IC50 hMC1R binding
[4] = target: T3, human MC3R (Homo sapiens, UniProt P41968); assay: cAMP assay (LANCE) in T-Rex-293 cells expressing MC3R; type: cell-based; settings: cAMP assay; mean (± SEM) of at least three independent experiments; read-out: EC50 hMC3R cAMP
T3 construct: expressed in transfected cells

[5] = tested on: hMC1−5R; assay: Melanocortin receptor radioligand binding, result stated for all receptors together; design: species or system human; settings: human MC receptors, radioligand binding
From the text: Example concentration response curves for selected PepNats in MC1R, MC3R, MC4R, MC5R radioligand binding assays and MC1R, MC3R, MC4R cAMP assays. Responses were normalized to reference agonist NDP -α-MSH and presented as % effect of control, with full competition in binding defined as -100% and full agonism in cAMP assays defined as […]
binding assay. Threshold to define a compound as active was set to -30% in binding assays and 20% in cAMP assays respectively. Data are from at least three independent experiments and error bars represent ± Standard Error of the […]
% s p e c ific b in d in g o f
(1 picture or pasted object on this page, not shown here) […]
expression, MC1R and MC4R transfected cells were treated with 0.1 ng /mL and MC3R transfected cells with 10 ng/mL doxycyclin, for 24 h before assay.
Melanocortin receptor radioligand binding and cAMP assays.
Binding and cAMP assays were performed as described by Durek et al.7 “A 384-well format scintillation proximity assay (SPA) was used to identify compounds that show competitive binding to the human Melanocortin receptor 1,3,4 or 5 ligand binding domain (LBD). […] The inhibition of the scintillation signal by displacement of [ 125I]- NDP-α-MSH by test compounds were detected by a 1450 MicroBeta Trilux scintillation counter […]
Plates were incubated for 16-23 h in the dark at room temperature before reading on a 1450 […]
Measurements of cAMP production were performed using LANCE® cAMP kits (PerkinElmer) in a total assay volume of 12 µl/well. […] The reaction was stopped with detection buffer containing 10 µM Biotin-cAMP and 15 µM LANCE Eu-W8044 labelled streptavidin (PerkinElmer LANCE cAMP kit). cAMP production was detected by homogenous time resolved fluorescence (HTRF) (λex = 340 nm, λem = 665 and 615 nm) using a Pherastar (BMG Labtech).
PepNats, literature compounds and references were tested in ten-point concentration response (½ log serial dilution) with 100, 10 or 1 µM as final start concentrations. Raw data output was analyzed in Screener software (Genedata AG) and pEC50 and pIC50 values calculated using a four-

[6] = target: T3, human MC3R; assay: Melanocortin receptor radioligand binding (SPA, [125I]-NDP-α-MSH displacement), MC3R; settings: competitive binding, mean (± SEM) of at least three independent experiments, read-out: IC50 hMC3R binding
[7] = target: T1, human MC4R; assay: cAMP assay (LANCE) in T-Rex-293 cells expressing MC4R; type: cell-based; settings: cAMP assay; mean (± SEM) of at least three independent experiments; read-out: EC50 hMC4R cAMP
[8] = target: T4, human MC5R (Homo sapiens, UniProt P33032); assay: Melanocortin receptor radioligand binding (SPA, [125I]-NDP-α-MSH displacement), MC5R; settings: competitive binding, [125I]-NDP-α-MSH; mean (± SEM) of at least three independent experiments; read-out: IC50 hMC5R binding
T4 construct: expressed in transfected cells; host or cells: HEK293-6E suspension cells, transient expression; membranes
T4 sequence (P33032 whole entry): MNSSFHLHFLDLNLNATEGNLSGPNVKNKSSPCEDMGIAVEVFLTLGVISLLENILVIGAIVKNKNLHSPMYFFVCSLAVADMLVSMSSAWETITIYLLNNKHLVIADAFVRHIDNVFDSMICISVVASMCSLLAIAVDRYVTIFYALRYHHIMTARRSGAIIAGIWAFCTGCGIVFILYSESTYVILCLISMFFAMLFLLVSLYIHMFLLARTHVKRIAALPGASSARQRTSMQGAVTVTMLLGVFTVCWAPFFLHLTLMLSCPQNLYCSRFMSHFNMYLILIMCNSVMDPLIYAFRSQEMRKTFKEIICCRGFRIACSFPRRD

T2 sequence (Q01726 whole entry): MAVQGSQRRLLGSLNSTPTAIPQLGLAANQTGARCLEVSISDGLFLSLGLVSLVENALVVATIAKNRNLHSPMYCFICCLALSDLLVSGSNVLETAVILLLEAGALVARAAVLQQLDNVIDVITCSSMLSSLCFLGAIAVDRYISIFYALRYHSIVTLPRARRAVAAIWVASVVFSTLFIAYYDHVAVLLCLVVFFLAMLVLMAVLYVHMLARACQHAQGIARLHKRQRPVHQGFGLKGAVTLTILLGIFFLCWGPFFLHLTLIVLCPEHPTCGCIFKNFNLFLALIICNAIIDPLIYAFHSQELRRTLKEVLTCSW
T3 sequence (P41968 whole entry): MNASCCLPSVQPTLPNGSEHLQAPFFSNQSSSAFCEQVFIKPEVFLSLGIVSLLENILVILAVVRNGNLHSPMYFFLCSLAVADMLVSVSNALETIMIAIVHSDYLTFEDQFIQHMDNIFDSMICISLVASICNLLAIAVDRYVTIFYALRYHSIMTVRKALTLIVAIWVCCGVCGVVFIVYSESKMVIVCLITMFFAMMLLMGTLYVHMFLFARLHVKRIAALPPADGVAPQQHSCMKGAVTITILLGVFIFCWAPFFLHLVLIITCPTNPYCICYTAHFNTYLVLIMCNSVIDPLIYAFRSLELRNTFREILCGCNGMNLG
T1 sequence (P32245 whole entry): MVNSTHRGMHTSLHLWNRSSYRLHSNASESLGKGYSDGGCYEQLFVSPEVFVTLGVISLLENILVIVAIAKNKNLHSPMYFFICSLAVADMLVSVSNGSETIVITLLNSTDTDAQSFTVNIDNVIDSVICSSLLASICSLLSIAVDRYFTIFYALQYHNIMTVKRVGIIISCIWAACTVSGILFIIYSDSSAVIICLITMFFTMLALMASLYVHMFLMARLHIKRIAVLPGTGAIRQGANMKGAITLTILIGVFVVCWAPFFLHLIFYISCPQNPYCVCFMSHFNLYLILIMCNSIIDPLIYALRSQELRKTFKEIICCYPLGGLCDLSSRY

C[C@@H]1NC(=O)[C@H](CC(N)=O)NC(=O)[C@H](Cc2ccccc2)NC(=O)[C@H](Cc2ccccc2)NC(=O)[C@H](CCCNC(=N)N)NC(=O)[C@@H](NC(=O)[C@@H](N)Cc2ccc(O)cc2)CSSC[C@@H](C(=O)N[C@@H](Cc2ccc(O)cc2)C(N)=O)NC(=O)[C@H](Cc2ccccc2)NC1=O [compound 28, reference compound] (HELM PEPTIDE1{Y.C.R.F.F.N.A.F.C.Y.[am]}$PEPTIDE1,PEPTIDE1,2:R3-9:R3$$$V2.0)
IC50 [1]: 0.18 ± 0.01 µM
Emax ([2]; T-REx-293, read-out: % Effect hMC1R cAMP): 44%
agonistic activity at MC1R (in words) ([2]; cAMP assay, hMC1R): weak partial agonistic activity
EC50 ([2]; cAMP assay, mean (± SEM) of at least three independent experiments, read-out: EC50 hMC1R cAMP): 1.2 ± 0.4 µM
IC50 [3]: 10 ± 1 µM
EC50 [4]: > 100 µM
binding to the MC receptors (in words) [5]: micromolar affinity
IC50 [6]: 1.6 ± 0.1 µM
EC50 [7]: > 100 µM
IC50 [8]: 1.6 ± 0.3 µM
